Data: US20220047545A1 (priority 2020, published 2022)

Tested on: cathepsin L expression in A549 cells
Test: Cathepsin L expression in A549 cells (Western blot)
Type: cell-based, human
Conditions: A549 cells
Experimental: Proteins (50 μg/well) were separated on 8-16% gradient SDS-PAGE gels and transferred to a PVDF membrane. […] Images were captured with Azure™ cSeries digital imaging system (Azure Biosystems, Dublin, Calif.) with auto-exposure settings. Densitometry was performed with NIH ImageJ software.
Cathepsin L expression: Expression of cathepsin L in cells was performed using Western blot. Briefly, 48 hours prior to the analysis, A549 cells were treated with PB at 5.0, and 10 μg/ml concentrations. Next, cells were washed with 1×PBS, lysed, and processed according to procedure described below.
Western blot: […] cells were lysed with lysis buffer [RIPA buffer plus 1× Protease Inhibitor (ThermoFisher Scientific, Waltham, Mass.)]. The protein estimation was performed with Dc Protein Assay (Bio-Rad, Hercules, Calif.). A 45 μg/well of protein was separated on 8-16% gradient SDS-PAGE gels and transferred to a PVDF membrane. Detection was performed with antibodies against cathepsin L at 1:200 dilution (Santa Cruz Biotechnology, Santa Cruz, Calif.) and against β-actin at 1:1000 dilution (Cell Signaling, Danvers, Mass.).

Compound | cathepsin L expression at protein level
COc1cc(/C=C/C(=O)CC(=O)/C=C/c2ccc(O)c(OC)c2)ccc1O [Curcumin] | neither brazilin nor curcumin down-regulated cathepsin L expression

Biological target: T1, hACE2 (Homo sapiens, UniProt Q9BYF1)
T1 sequence (Q9BYF1 18-805): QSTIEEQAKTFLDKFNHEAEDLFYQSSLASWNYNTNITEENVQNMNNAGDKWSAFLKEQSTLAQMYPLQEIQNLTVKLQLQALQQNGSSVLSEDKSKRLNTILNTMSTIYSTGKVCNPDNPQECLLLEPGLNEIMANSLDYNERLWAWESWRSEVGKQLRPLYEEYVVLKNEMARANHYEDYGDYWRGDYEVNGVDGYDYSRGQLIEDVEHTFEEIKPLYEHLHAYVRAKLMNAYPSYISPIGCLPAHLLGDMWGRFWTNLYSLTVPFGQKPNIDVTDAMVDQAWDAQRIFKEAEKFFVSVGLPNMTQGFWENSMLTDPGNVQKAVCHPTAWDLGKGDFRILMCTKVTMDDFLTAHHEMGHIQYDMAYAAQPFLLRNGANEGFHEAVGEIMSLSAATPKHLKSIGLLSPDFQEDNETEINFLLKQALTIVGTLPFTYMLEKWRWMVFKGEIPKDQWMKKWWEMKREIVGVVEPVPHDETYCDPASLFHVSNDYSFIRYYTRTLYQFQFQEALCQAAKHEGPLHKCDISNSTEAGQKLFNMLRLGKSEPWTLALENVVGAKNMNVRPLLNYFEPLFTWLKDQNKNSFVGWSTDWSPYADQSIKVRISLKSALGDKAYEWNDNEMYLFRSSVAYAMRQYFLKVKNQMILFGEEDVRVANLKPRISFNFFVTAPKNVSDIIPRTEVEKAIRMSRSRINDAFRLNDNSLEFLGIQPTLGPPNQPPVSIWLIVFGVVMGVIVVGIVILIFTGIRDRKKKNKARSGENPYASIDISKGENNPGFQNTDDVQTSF
Test: ACE2 binding assay (ACE2 Inhibitor Screening Assay Kit)
Parameters: purchased BPS Bioscience
Conditions: not given

Compound | concentration at which binding efficacy to ACE2 was shown
COc1cc(/C=C/C(=O)CC(=O)/C=C/c2ccc(O)c(OC)c2)ccc1O [Curcumin] | 10 to 25 µg/mL

Biological target: RBD of SARS-CoV-2 spike protein (Severe acute respiratory syndrome coronavirus 2, UniProt P0DTC2)
Test: not given
Conditions: literature computational study; cited from earlier work

Compound | binding energy ΔG to RBD / viral spike protein
COc1cc(/C=C/C(=O)CC(=O)/C=C/c2ccc(O)c(OC)c2)ccc1O [Curcumin] | -10.5 kcal/mol
catechin [cathechin] | -7.9 kcal/mol

Biological target: RBD of SARS-CoV-2 spike protein binding to hACE2 receptor (Severe acute respiratory syndrome coronavirus 2, UniProt P0DTC2)
Test: not given
Conditions: not given

Compound | Binding with RBD (% of control ± SD) | enhancement of blocking the RBD binding by Formula 1 when micronutrient tested individually
O[C@H]1[C@H](O)[C@@H](O)CN2CC[C@H](O)[C@H]12 [Castanospermine] | 8.2 ± 2.3 % of control | 
COc1ccc2cc3[n+](cc2c1OC)CCc1cc2c(cc1-3)OCO2 [Berberine] | 17.3 ± 2.7 % of control | 
O=c1c(O)c(-c2ccc(O)cc2)oc2cc(O)cc(O)c12 [Kaemferol] | 15.6 ± 2.9 % of control | 
O=c1cc(-c2ccc(O)cc2)oc2cc(O)cc(O)c12 [Apigenin] | 17.1 ± 4.1 % of control | 
C[C@@H]1O[C@@H](O[C@H]2[C@H](Oc3cc(O)c4c(c3)O[C@H](c3ccc(O)cc3)CC4=O)O[C@H](CO)[C@@H](O)[C@@H]2O)[C@H](O)[C@H](O)[C@H]1O [Naringin] | 23.6 ± 6.4 % of control | 
O=c1c(O)c(-c2ccc(O)cc2O)oc2cc(O)cc(O)c12 [Morin] | 30.5 ± 5.8 % of control | 
(−)-gallocatechin gallate | 75.4 ± 5.6 % of control | 
Oc1cc(O)c2c(c1)O[C@H](c1cc(O)c(O)c(O)c1)[C@@H](O)C2 [(+)-gallocatechin] | 69.5 ± 2.8 % of control | 
O=C(O)c1cc(O)c(O)c(O)c1 [Gallic acid] | 18.3 ± 4.5 % of control | 
O=c1oc2cc(O)ccc2c2ccc(O)cc12 [Urolithin A] | 31.1 ± 4.6 % of control | 
O=C(OC[C@H]1O[C@@H](OC(=O)c2cc(O)c(O)c(OC(=O)c3cc(O)c(O)c(O)c3)c2)[C@H](OC(=O)c2cc(O)c(O)c(OC(=O)c3cc(O)c(O)c(O)c3)c2)[C@@H](OC(=O)c2cc(O)c(O)c(OC(=O)c3cc(O)c(O)c(O)c3)c2)[C@@H]1OC(=O)c1cc(O)c(O)c(OC(=O)c2cc(O)c(O)c(O)c2)c1)c1cc(O)c(O)c(OC(=O)c2cc(O)c(O)c(O)c2)c1 [Tannic acid] | 79.4 ± 2.3 % of control | 
O=c1c(-c2ccc(O)cc2)coc2cc(O)cc(O)c12 [Genistein] | 22.1 ± 2.8 % of control | 
C=C(C)[C@H]1CC=C(C)CC1 [D-limonene] | 27.2 ± 6.4 % of control | 
COc1cc2c(cc1OC)-c1cc3ccc(OC)c(OC)c3c[n+]1CC2 [Palmatine] | 40.4 ± 6.1 % of control | 
COc1ccc(Cc2nccc3cc(OC)c(OC)cc23)cc1OC [Papaverine, reference compound] | 1.6 ± 0.2 % of control | 
O=c1c(O)c(-c2ccc(O)c(O)c2)oc2cc(O)cc(O)c12 [Quercetin] | 22.4 ± 6.5 % of control | 
O=C1O[C@H]2[C@@H]3OC(=O)c4cc(O)c(O)c(O)c4-c4c(O)c(O)c5oc(=O)c6c(c(O)c(O)c7oc(=O)c4c5c76)-c4c(cc(O)c(O)c4O)C(=O)OC[C@H]3OC(O)[C@@H]2OC(=O)c2cc(O)c(O)c(O)c2-c2c1cc(O)c(O)c2O (mixture of isomers) [Punicalagin] | 32.3 ± 5.9 % of control | 
O=C1C[C@@H](c2ccc(O)cc2)Oc2cc(O)cc(O)c21 [Naringenin] | 20 ± 5.1 % of control | 
COc1cc(/C=C/C(=O)CC(=O)/C=C/c2ccc(O)c(OC)c2)ccc1O [Curcumin] | 100 ± 0.2 % of control | 
O=C(OC1Cc2c(O)cc(O)cc2OC1c1cc(O)c(O)c(O)c1)c1cc(O)c(O)c(O)c1 (single isomer, unassigned; (+)) [(+)-epigallocatechin gallate] | 87.5 ± 6.8 % of control | 
COc1cc(/C=C/c2ccc(O)cc2)cc(OC)c1 [Pterostillbene] | 23.1 ± 2.8 % of control | 
O=C(O)CC(O)C(=O)O (stereo not shown) [Malic acid] | 1.2 ± 3.7 % of control | 
COc1ccc([C@@H]2CC(=O)c3c(O)cc(O[C@@H]4O[C@H](CO[C@@H]5O[C@@H](C)[C@H](O)[C@@H](O)[C@H]5O)[C@@H](O)[C@H](O)[C@H]4O)cc3O2)cc1O [Hesperidin] | 90.3 ± 3.8 % of control | only minimal enhancement

Compound | Binding with RBD (% of control ± SD) | enhancement of blocking the RBD binding by Formula 1 when micronutrient tested individually
COc1ccc([C@@H]2CC(=O)c3c(O)cc(O)cc3O2)cc1O [Hesperetin] | 42.5 ± 4.6 % of control | 
COc1c(O)cc2oc(-c3ccc(O)cc3)cc(=O)c2c1O [Hispidulin] | 20.1 ± 6.0 % of control | 
O=c1c(O)c(-c2ccc(O)c(O)c2)oc2cc(O)ccc12 [Fisetin] | 22.4 ± 1.9 % of control | 
C[S+]([O-])CCCCN=C=S [L-sulforaphane] | 30.2 ± 3.6 % of control | 
C[C@@H]1O[C@@H](OC[C@H]2O[C@@H](Oc3c(-c4ccc(O)c(O)c4)oc4cc(O)cc(O)c4c3=O)[C@H](O)[C@@H](O)[C@@H]2O)[C@H](O)[C@H](O)[C@H]1O [Rutin] | 20.6 ± 6.3 % of control | 
C=C(C)[C@@H]1CCC(C)=C[C@H]1c1c(O)cc(CCCCC)cc1O [Cannabidiol, reference compound] | 1.4 ± 0.3 % of control | 
CC(C)c1cc2c(c(O)c1O)[C@@]1(C(=O)O)CCCC(C)(C)[C@@H]1CC2 [Carnosic acid] | 27.1 ± 5.1 % of control | 
O=c1c(O)c(-c2cc(O)c(O)c(O)c2)oc2cc(O)cc(O)c12 [Myricetin] | 45.5 ± 5.4 % of control | 
O=C(O[C@@H]1Cc2c(O)cc(O)cc2O[C@H]1c1ccc(O)c(O)c1)c1cc(O)c(O)c(O)c1 [(−)-catechin gallate] | 37.4 ± 4.7 % of control | 
O=C(O)[C@H]1O[C@@H](Oc2cc3oc(-c4ccc(O)cc4)cc(=O)c3c(O)c2O)[C@H](O)[C@@H](O)[C@@H]1O [Scutellarin] | 8.1 ± 3.7 % of control | 
Oc1ccc(/C=C/c2cc(O)cc(O)c2)cc1 [Trans-resveratrol] | 22.3 ± 2.9 % of control | 
O=C(O)[C@H]1O[C@@H](Oc2cc3oc(-c4ccccc4)cc(=O)c3c(O)c2O)[C@H](O)[C@@H](O)[C@@H]1O [Baicalin] | 10.3 ± 2.9 % of control | only minimal enhancement
O=c1cc(-c2ccc(O)c(O)c2)oc2cc(O)cc(O)c12 [Luteolin] | 10.4 ± 4.7 % of control | only minimal enhancement
Oc1cc(O)c2c(c1)O[C@H](c1ccc(O)c(O)c1)[C@@H](O)[C@@H]2c1c(O)cc(O)c2c1O[C@H](c1ccc(O)c(O)c1)[C@@H](O)C2 [Procyanidin B3] | 32.3 ± 3.7 % of control | 
O=C(/C=C/c1ccc(O)c(O)c1)O[C@H](Cc1ccc(O)c(O)c1)C(=O)O [Rosmarinic acid] | 22.5 ± 3.8 % of control | 
Oc1cc(O)c2c(c1)O[C@H](c1ccc(O)c(O)c1)[C@H](O)[C@H]2c1c(O)cc(O)c2c1O[C@H](c1ccc(O)c(O)c1)[C@H](O)C2 [Procyanidin B2] | 31.1 ± 3.6 % of control | 
C=C1CC[C@@H]2[C@](C)(CO)[C@H](O)CC[C@@]2(C)[C@@H]1C/C=C1/C(=O)OC[C@H]1O [Andrographolide] | 22.1 ± 2.5 % of control | 
Oc1cc(O)cc(O)c1 [Phloroglucinol] | 69.5 ± 3.6 % of control | 
CC(=O)c1c(O)c(C)c(O)c2c1OC1=CC(=O)C(C(C)=O)C(=O)C12C (stereo not shown) [Usnic acid] | 22.0 ± 3.4 % of control | 
O=c1cc(-c2ccccc2)oc2cc(O)c(O)c(O)c12 [Baicalein] | 22.5 ± 5.1 % of control | 
O=c1c(O)cc([C@H]2Oc3cc(O)cc(O)c3C[C@H]2O)cc2c([C@H]3Oc4cc(O)cc(O)c4C[C@H]3O)cc(O)c(O)c12 [Theaflavin] | 27.3 ± 1.4 % of control | 
O=C(/C=C/c1ccc(O)c(O)c1)O[C@@H]1C[C@](O)(C(=O)O)C[C@@H](O)[C@H]1O [Chlorogenic acid] | 25.5 ± 2.5 % of control | 
Oc1cc(O)c2c(c1)O[C@@H](c1cc(O)c(O)c(O)c1)[C@H](O)C2 [(−)-gallocatechin] | 73.5 ± 6.7 % of control | 

Biological target: T1, hACE2
Test: not given
Conditions: literature computational study (Jena et al.); cited from earlier work

Compound | binding energy to hACE2
COc1cc(/C=C/C(=O)CC(=O)/C=C/c2ccc(O)c(OC)c2)ccc1O [Curcumin] | -8.9 kcal/mol
catechin [cathechin] | -7.8 kcal/mol
